{"source": "patent US10168342B2", "about": "“Lipid probes and uses thereof” (THE SCRIPPS RESEARCH INSTITUTE, priority 2015, dated 2019)", "key": {"[1]": {"target": "T1, AEA-DA lipid probe targets in Neuro2a cells (Mus musculus, UniProt P54071)", "T1 sequence (P54071 40-452)": "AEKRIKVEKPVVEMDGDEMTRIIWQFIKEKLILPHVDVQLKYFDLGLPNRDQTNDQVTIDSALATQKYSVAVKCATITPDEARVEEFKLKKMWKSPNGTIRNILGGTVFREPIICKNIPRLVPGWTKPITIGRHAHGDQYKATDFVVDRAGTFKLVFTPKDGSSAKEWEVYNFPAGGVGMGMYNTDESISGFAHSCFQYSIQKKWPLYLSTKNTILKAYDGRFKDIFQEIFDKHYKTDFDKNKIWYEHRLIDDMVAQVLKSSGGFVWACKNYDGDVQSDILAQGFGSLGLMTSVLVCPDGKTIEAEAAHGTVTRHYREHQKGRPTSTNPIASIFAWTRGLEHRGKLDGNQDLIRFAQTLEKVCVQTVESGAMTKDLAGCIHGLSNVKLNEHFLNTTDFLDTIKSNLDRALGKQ"}, "[2]": {"target": "T2, AEA-DA lipid probe targets in Neuro2a cells (Mus musculus, UniProt P55096)", "T2 sequence (P55096 1-659)": "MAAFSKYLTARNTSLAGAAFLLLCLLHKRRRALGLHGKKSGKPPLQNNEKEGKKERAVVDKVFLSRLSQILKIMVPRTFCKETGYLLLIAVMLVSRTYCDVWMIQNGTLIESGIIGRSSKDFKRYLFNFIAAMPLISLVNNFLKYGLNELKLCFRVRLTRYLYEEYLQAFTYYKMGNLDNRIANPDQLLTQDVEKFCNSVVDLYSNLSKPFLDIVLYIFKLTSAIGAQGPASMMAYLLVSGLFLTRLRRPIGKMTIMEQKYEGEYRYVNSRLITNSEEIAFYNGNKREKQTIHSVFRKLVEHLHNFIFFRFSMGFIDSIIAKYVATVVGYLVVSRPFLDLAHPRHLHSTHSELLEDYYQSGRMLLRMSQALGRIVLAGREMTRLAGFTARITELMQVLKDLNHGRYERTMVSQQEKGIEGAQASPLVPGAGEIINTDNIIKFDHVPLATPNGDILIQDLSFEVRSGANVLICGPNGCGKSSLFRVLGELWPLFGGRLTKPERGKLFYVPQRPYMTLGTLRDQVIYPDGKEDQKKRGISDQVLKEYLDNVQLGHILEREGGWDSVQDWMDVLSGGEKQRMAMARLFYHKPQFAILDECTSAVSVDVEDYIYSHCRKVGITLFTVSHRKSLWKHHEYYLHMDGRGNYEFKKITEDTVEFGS"}, "[3]": {"target": "T3, AEA-DA lipid probe targets in Neuro2a cells (Mus musculus, UniProt Q61712)", "T3 sequence (Q61712 44-552)": "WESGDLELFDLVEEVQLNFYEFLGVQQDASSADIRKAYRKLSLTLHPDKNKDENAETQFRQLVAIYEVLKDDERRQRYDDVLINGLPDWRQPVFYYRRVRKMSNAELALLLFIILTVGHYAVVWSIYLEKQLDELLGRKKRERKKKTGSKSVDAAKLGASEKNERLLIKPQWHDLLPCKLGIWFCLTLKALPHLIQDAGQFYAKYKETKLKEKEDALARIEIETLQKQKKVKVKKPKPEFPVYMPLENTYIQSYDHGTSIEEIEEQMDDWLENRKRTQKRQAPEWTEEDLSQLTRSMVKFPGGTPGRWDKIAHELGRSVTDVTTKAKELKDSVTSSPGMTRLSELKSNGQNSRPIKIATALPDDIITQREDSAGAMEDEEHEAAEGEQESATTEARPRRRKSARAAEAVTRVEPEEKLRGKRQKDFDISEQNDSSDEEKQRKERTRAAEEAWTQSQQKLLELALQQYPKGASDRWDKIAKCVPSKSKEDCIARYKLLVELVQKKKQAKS", "settings": "for SILAC ratio, DNAJC1 (Q96KC8): Neuro2a cells, AEA-DA probe"}, "[4]": {"target": "AEA-DA lipid probe targets in Neuro2a cells (Mus musculus, UniProt Q61584)", "sequence (Q61584 whole entry)": "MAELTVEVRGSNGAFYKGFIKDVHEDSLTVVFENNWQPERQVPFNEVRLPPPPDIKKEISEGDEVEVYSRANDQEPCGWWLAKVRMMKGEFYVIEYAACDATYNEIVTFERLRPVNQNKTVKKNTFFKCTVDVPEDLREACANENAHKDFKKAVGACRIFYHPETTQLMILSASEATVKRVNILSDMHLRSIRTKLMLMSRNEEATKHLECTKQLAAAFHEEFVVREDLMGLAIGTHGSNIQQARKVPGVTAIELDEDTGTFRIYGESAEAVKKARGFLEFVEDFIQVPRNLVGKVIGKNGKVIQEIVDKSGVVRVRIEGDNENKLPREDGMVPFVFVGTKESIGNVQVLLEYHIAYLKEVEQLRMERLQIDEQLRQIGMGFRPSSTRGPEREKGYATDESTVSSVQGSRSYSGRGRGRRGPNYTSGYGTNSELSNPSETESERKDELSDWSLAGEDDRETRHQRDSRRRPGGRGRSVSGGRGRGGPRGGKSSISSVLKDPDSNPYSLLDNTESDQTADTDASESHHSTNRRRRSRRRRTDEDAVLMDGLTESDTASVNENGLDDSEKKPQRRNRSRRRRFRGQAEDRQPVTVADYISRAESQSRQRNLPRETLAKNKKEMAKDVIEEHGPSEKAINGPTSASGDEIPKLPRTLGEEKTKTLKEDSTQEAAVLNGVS"}, "[5]": {"target": "T4, AEA-DA lipid probe targets in Neuro2a cells (Mus musculus, UniProt Q8R127)", "T4 sequence (Q8R127 1-429)": "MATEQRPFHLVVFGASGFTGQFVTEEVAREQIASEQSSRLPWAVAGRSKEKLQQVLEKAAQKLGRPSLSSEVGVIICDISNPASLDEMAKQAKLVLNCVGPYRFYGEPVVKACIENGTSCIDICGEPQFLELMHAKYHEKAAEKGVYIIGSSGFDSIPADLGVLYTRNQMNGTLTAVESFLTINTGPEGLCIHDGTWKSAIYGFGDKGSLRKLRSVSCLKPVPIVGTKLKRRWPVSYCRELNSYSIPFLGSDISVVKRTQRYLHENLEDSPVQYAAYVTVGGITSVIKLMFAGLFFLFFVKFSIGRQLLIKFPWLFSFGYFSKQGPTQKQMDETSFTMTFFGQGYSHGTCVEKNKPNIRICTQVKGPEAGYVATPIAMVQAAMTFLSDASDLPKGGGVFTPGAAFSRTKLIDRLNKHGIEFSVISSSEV"}, "[6]": {"target": "AEA-DA lipid probe targets in Neuro2a cells (Mus musculus, UniProt Q9Z2G6)", "sequence (Q9Z2G6 22-790)": "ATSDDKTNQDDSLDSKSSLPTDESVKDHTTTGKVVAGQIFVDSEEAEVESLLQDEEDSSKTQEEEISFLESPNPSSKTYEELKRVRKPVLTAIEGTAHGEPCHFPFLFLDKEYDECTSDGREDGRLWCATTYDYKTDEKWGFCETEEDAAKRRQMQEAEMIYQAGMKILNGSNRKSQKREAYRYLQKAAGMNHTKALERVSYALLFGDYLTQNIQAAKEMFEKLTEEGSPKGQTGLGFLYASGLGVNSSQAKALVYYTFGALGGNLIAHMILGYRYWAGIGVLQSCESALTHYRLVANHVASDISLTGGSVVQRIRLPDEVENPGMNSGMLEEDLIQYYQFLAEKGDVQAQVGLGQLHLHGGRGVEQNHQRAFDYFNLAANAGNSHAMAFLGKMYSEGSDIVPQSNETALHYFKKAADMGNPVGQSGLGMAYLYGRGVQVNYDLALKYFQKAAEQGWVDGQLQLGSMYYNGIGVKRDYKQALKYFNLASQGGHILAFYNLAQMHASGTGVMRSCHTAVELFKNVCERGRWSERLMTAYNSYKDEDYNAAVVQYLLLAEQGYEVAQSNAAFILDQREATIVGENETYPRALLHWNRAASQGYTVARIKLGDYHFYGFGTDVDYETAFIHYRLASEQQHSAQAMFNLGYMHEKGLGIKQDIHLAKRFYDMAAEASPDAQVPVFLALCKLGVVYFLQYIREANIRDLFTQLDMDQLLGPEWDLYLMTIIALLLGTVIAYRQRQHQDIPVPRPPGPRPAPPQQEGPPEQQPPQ"}, "[7]": {"target": "AEA-DA lipid probe targets in Neuro2a cells (Mus musculus, UniProt P20029)", "sequence (P20029 20-655)": "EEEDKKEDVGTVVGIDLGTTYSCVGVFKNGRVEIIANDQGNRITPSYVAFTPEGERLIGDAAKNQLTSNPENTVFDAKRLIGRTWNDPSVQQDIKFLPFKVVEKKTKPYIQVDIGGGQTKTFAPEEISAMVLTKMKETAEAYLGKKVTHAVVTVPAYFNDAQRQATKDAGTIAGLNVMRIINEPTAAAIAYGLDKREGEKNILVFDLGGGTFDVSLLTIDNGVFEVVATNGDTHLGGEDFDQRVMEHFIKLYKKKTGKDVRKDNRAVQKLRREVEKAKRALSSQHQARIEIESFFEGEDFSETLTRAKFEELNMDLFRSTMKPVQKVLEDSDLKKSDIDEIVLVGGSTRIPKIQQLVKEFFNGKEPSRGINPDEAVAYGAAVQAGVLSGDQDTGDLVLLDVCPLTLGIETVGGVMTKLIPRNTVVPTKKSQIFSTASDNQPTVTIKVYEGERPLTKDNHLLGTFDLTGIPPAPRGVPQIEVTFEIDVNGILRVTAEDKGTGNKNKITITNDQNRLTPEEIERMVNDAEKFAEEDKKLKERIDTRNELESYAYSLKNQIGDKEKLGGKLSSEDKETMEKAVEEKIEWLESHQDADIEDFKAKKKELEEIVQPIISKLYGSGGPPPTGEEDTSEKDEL"}, "[8]": {"target": "T5, AEA-DA lipid probe targets in Neuro2a cells (Mus musculus, UniProt Q8C0L0)", "T5 sequence (Q8C0L0 21-335)": "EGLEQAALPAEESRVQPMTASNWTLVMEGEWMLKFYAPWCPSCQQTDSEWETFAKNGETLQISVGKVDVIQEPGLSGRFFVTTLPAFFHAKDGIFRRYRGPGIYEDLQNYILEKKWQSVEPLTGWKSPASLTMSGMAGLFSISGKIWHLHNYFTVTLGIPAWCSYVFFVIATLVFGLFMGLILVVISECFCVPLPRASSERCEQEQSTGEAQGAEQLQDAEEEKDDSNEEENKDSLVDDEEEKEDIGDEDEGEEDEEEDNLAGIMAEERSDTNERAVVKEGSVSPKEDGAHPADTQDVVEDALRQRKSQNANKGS"}}, "note": "Like-named read-outs stand apart in the source and are kept apart here.", "data": [{"molecule": "CCCCC/C=C\\C/C=C\\C/C=C\\C/C=C\\CCCC(=O)NCCO", "note": "[AEA, anandamide, reference compound]", "values": [{"measurement": "SILAC ratio Idh2", "setting": "[1]; competitor 200 μM", "value": 1.2}, {"measurement": "SILAC ratio Abcd3", "setting": "[2]; competitor 200 μM", "value": 1.5}, {"measurement": "SILAC ratio, DNAJC1 (Q96KC8)", "setting": "[3]; competitor 200 μM", "value": 2.1}, {"measurement": "SILAC ratio, Dnajc1", "setting": "[3]; competitor 200 μM", "value": 2.1}, {"measurement": "SILAC ratio Fxr1", "setting": "[4]; competitor 200 μM", "value": 1.1}, {"measurement": "SILAC ratio, Sccpdh", "setting": "[5]; competitor 200 μM", "value": 3.4}, {"measurement": "SILAC ratio, Sel1l", "setting": "[6]; competitor 200 μM", "value": 1.6}, {"measurement": "SILAC ratio Hspa5", "setting": "[7]; competitor 200 μM", "value": 1.2}, {"measurement": "SILAC ratio Tmx4", "setting": "[8]; competitor 200 μM", "value": 1.9}]}, {"molecule": "O=C(/C=C/c1cccnc1)NCCCCC1CCN(C(=O)c2ccccc2)CC1", "note": "[FK-866, reference compound]", "values": [{"measurement": "SILAC ratio Idh2", "setting": "[1]; competitor 25 μM", "value": 1.2}, {"measurement": "SILAC ratio Abcd3", "setting": "[2]; competitor 25 μM", "value": 1.3}, {"measurement": "SILAC ratio, DNAJC1 (Q96KC8)", "setting": "[3]; competitor 25 μM", "value": 1.4}, {"measurement": "SILAC ratio, Dnajc1", "setting": "[3]; competitor 25 μM", "value": 1.4}, {"measurement": "SILAC ratio Fxr1", "setting": "[4]; competitor 25 μM", "value": 1.4}, {"measurement": "SILAC ratio, Sccpdh", "setting": "[5]; competitor 25 μM", "value": 7.3}, {"measurement": "SILAC ratio, Sel1l", "setting": "[6]; competitor 25 μM", "value": 1.4}, {"measurement": "SILAC ratio Hspa5", "setting": "[7]; competitor 25 μM", "value": 1.2}, {"measurement": "SILAC ratio Tmx4", "setting": "[8]; competitor 25 μM", "value": 1.0}]}, {"molecule": "CN1CCN(C(=O)c2c(-c3ccccc3)c3cc([N+](=O)[O-])ccc3n2C)CC1", "note": "[KML110, (1-Methyl-5-nitro-3-phenyl-1H-indol-2-yl)(4-methylpiperazin-1-yl)methanone]", "values": [{"measurement": "SILAC ratio Idh2", "setting": "[1]; competitor 25 μM", "value": 1.3}, {"measurement": "SILAC ratio Abcd3", "setting": "[2]; competitor 25 μM", "value": 1.2}, {"measurement": "SILAC ratio Fxr1", "setting": "[4]; competitor 25 μM", "value": 1.5}, {"measurement": "SILAC ratio, Sccpdh", "setting": "[5]; competitor 25 μM", "value": 2.6}, {"measurement": "SILAC ratio, Sel1l", "setting": "[6]; competitor 25 μM", "value": 1.5}, {"measurement": "SILAC ratio Hspa5", "setting": "[7]; competitor 25 μM", "value": 1.4}, {"measurement": "SILAC ratio Tmx4", "setting": "[8]; competitor 25 μM", "value": 1.4}]}, {"molecule": "CN1CCN(C(=O)c2[nH]c3ccc([N+](=O)[O-])cc3c2-c2ccccc2)CC1", "note": "[MJN228, (4-Methylpiperazin-1-yl)(5-nitro-3-phenyl-1H-indol-2-yl)methanone]", "values": [{"measurement": "SILAC ratio Idh2", "setting": "[1]; competitor 10 μM", "value": 1.3}, {"measurement": "SILAC ratio Idh2", "setting": "[1]; competitor 25 μM", "value": 1.4}, {"measurement": "SILAC ratio Idh2", "setting": "[1]; competitor 50 μM", "value": 1.6}, {"measurement": "SILAC ratio Idh2", "setting": "[1]; competitor 100 μM", "value": 1.6}, {"measurement": "SILAC ratio Abcd3", "setting": "[2]; competitor 10 μM", "value": 1.2}, {"measurement": "SILAC ratio Abcd3", "setting": "[2]; competitor 25 μM", "value": 1.5}, {"measurement": "SILAC ratio Abcd3", "setting": "[2]; competitor 50 μM", "value": 1.3}, {"measurement": "SILAC ratio Abcd3", "setting": "[2]; competitor 100 μM", "value": 1.2}, {"measurement": "SILAC ratio, DNAJC1 (Q96KC8)", "setting": "[3]; competitor 25 μM", "value": 1.6}, {"measurement": "SILAC ratio, Dnajc1", "setting": "[3]; competitor 10 μM", "value": 1.0}, {"measurement": "SILAC ratio, Dnajc1", "setting": "[3]; competitor 25 μM", "value": 1.6}, {"measurement": "SILAC ratio, Dnajc1", "setting": "[3]; competitor 50 μM", "value": 1.5}, {"measurement": "SILAC ratio Fxr1", "setting": "[4]; competitor 10 μM", "value": 1.2}, {"measurement": "SILAC ratio Fxr1", "setting": "[4]; competitor 25 μM", "value": 1.3}, {"measurement": "SILAC ratio Fxr1", "setting": "[4]; competitor 50 μM", "value": 1.1}, {"measurement": "SILAC ratio Fxr1", "setting": "[4]; competitor 100 μM", "value": 1.1}, {"measurement": "SILAC ratio, Sccpdh", "setting": "[5]; competitor 10 μM", "value": 1.4}, {"measurement": "SILAC ratio, Sccpdh", "setting": "[5]; competitor 25 μM", "value": 2.1}, {"measurement": "SILAC ratio, Sccpdh", "setting": "[5]; competitor 50 μM", "value": 3.3}, {"measurement": "SILAC ratio, Sccpdh", "setting": "[5]; competitor 100 μM", "value": 5.9}, {"measurement": "SILAC ratio, Sel1l", "setting": "[6]; competitor 10 μM", "value": 1.2}, {"measurement": "SILAC ratio, Sel1l", "setting": "[6]; competitor 25 μM", "value": 1.5}, {"measurement": "SILAC ratio, Sel1l", "setting": "[6]; competitor 50 μM", "value": 1.5}, {"measurement": "SILAC ratio, Sel1l", "setting": "[6]; competitor 100 μM", "value": 1.9}, {"measurement": "SILAC ratio Hspa5", "setting": "[7]; competitor 10 μM", "value": 1.4}, {"measurement": "SILAC ratio Hspa5", "setting": "[7]; competitor 25 μM", "value": 1.4}, {"measurement": "SILAC ratio Hspa5", "setting": "[7]; competitor 50 μM", "value": 1.4}, {"measurement": "SILAC ratio Hspa5", "setting": "[7]; competitor 100 μM", "value": 1.5}, {"measurement": "SILAC ratio Tmx4", "setting": "[8]; competitor 10 μM", "value": 1.0}, {"measurement": "SILAC ratio Tmx4", "setting": "[8]; competitor 25 μM", "value": 1.3}, {"measurement": "SILAC ratio Tmx4", "setting": "[8]; competitor 50 μM", "value": 1.3}, {"measurement": "SILAC ratio Tmx4", "setting": "[8]; competitor 100 μM", "value": 1.6}]}, {"molecule": "C=CCN(C)CCCCCCOc1ccc(C(=O)c2ccc(Br)cc2)c(F)c1", "note": "[Ro 48-8071, reference compound]", "values": [{"measurement": "SILAC ratio Idh2", "setting": "[1]; competitor 25 μM", "value": 0.9}, {"measurement": "SILAC ratio Abcd3", "setting": "[2]; competitor 25 μM", "value": 0.9}, {"measurement": "SILAC ratio, DNAJC1 (Q96KC8)", "setting": "[3]; competitor 25 μM", "value": 1.2}, {"measurement": "SILAC ratio, Dnajc1", "setting": "[3]; competitor 25 μM", "value": 1.2}, {"measurement": "SILAC ratio Fxr1", "setting": "[4]; competitor 25 μM", "value": 0.9}, {"measurement": "SILAC ratio, Sccpdh", "setting": "[5]; competitor 25 μM", "value": 1.6}, {"measurement": "SILAC ratio, Sel1l", "setting": "[6]; competitor 25 μM", "value": 1.2}, {"measurement": "SILAC ratio Hspa5", "setting": "[7]; competitor 25 μM", "value": 0.9}, {"measurement": "SILAC ratio Tmx4", "setting": "[8]; competitor 25 μM", "value": 1.2}]}]}
